Test results published in patent US5470879A, “Treatment of non-insulin-dependent diabetes” (Laboratories Monal, priority 1992, dated 1995).
Like-named read-outs stand apart in the source and are kept apart here.

Tests used:
[1] = Intravenous glucose tolerance test (IVGTT) in anaesthetized normal rats fed ad libitum; assay type: in vivo
Method: (§1) Blood sugar level was assayed using a Technicon autoanalyzer by the potassium ferricyanide method.
(§2) During this experiment, Wistar rats were anaesthetized and then provided with catheters in both jugular veins. One catheter enables blood samples needed for the assay of plasma glucose and plasma insulin to be taken, the other catheter is used for the intravenous injection of the test substance.
Still in anaesthetized normal rats previously fed ad libitum, an intravenous glucose tolerance test was carried out.
Dissolved glucose was administered intravenously at a dose of 0.3 g/kg in one of the two jugular veins of the rat. […] In FIG. 3, "o" indicates the values observed when administering glucose alone, while ".cndot." indicates the values observed during the administration of glucose plus 4-hydroxyisoleucine.

[2] = system: isolated islets of Langerhans of rat pancreas; assay: Insulin secretion of isolated islets of Langerhans of rat pancreas (8.3 mM glucose, 1 hour); assay type: cell-based, Wistar rats
Method: (§3) In these examples, the pancreatic hormones (insulin and glucagon) were evaluated by radioimmunoassays.
This method, which has the advantage of necessitating only a small amount of substance, permits a direct study of the effects of the composition on pancreatic endocrine cells, especially insulin-secreting B cells, to the exclusion of any interference with the exocrine and related tissues.
The effect of different concentrations of 4-hydroxyisoleucine on insulin secretion was investigated on isolated islets of Wistar rats, incubated in the presence of 8.3 mM glucose (1.5 g/l) for 1 hour. The results obtained are recorded in FIG. 1, in which the histograms represent the insulin secretion measured over 60 minutes for each dose of 4-hydroxyisoleucine.
By way of comparison, the effects of two structural analogues of 4-hydroxyisoleucine, i.e. isoleucine and leucine, were observed under the same conditions, and it could be established that, with these two substances, the stimulatory effect on insulin secretion is apparent only with concentrations 50 to 100 times as high.

[3] = Acute intraperitoneal toxicity in Swiss mice; assay type: in vivo
Method: The acute toxicity was determined in Swiss mice of both sexes on intraperitoneal administration of a single dose of 1 gram per kilo of 4-hydroxyisoleucine. […] The LDo (zero lethal dose) is greater than 1 gram per kilo under our experimental conditions.

[4] = Gastric intubation in fasted conscious normal dogs: blood insulin and sugar levels; assay type: in vivo; conditions: 9 mg/kg by gastric intubation
Method: as §3, §1
During a complementary experiment in dogs, we investigated whether 4-hydroxyisoleucine can be active after oral administration, and whether, in this case, this substance retains its insulin-secreting property and consequently its capacity to improve glucose tolerance.
(§4) Using conscious normal dogs kept fasted for 18 hours, 4-hydroxyisoleucine is dissolved in physiological saline and administered by gastric intubation at a dose of 9 mg/kg.
Blood samples drawn from one of the two jugular veins enabled the blood insulin and sugar levels of these animals to be evaluated. […] The arrows near the top of FIGS. 4A and 4B represent the approximate time of administration of the 4-hydroxyisoleucine.

[5] = assay type: in vivo, Wistar rats
Method: as §3, §1
The results were subjected to a variance analysis followed by the multiple comparison test.
as §2

[6] = system: isolated and perfused rat pancreas; assay: Isolated and perfused rat pancreas: insulin secretion, vascular flow, glucagon (8.3 mM glucose); conditions: for Insulin secretion: glucose alone 810 ± 83
Method: as §3
To carry out this test, the pancreas was completely isolated from all the other neighbouring organs and tissues (spleen, stomach, duodenum, epiploic fat) and perfused in an open circuit with a physiological solution in a perfusion chamber. This preparation has the advantage of preserving the functional and vascular integrity of the organ while depriving it of the regulatory influences (humoral or nervous) to which it is normally subjected.
In this example, the experiments were carried out in the presence of an 8.3 mM concentration of glucose. Under these conditions, the effect on insulin secretion of a perfusion of 4-hydroxyisoleucine at a concentration of 200 μM for 10 minutes was studied. […] The perfusion of the 4-hydroxyisoleucine is indicated by the rectangular box with the lines extending downwardly from opposite sides of the box, near the top of the Figure.
The amounts of insulin secreted during the 10 minutes of perfusion are shown below: […]

[7] = Orally induced hyperglycaemia (OGTT) in fasted conscious normal dogs; assay type: in vivo
Method: as §1, §4
Dissolved glucose was administered by gastric intubation at a dose of 1 g/kg.
In FIG. 5, "o" represents values observed upon administering glucose alone; ".cndot." represents values observed in a trial in which glucose plus 4-hydroxyisoleucine is administered. The arrow toward the top of FIG. 5 represents the point of administration of the glucose or glucose plus 4-hydroxyisoleucine. When 4-hydroxyisoleucine (9 mg/kg) is added to the glucose solution administered by gastric intubation, the blood sugar level reaches only 120 mg/dl at the 30th minute, i.e. only +31%.

[8] = 9 mg/kg I.V., -2 min (before injection)
[9] = 9 mg/kg I.V., -10 min (before injection)
[10] = 9 mg/kg I.V., -15 min (before injection)

With `C[C@@H]([C@H](C)O)[C@H](N)C(=O)O` [4-hydroxyisoleucine] the “effect on induced hyperglycaemia” value ([1]; 9 mg/kg I.V. with glucose 0.3 g/kg I.V.) was “markedly reduced”, the Blood sugar level ([1]; 9 mg/kg I.V. with glucose 0.3 g/kg I.V., 3rd minute, glucose alone 282 mg/dl) was 204 mg/dL and the “change in blood sugar level” value ([1]; 9 mg/kg I.V. with glucose 0.3 g/kg I.V., 3rd minute, glucose alone +112%) was “+58%”. For the same molecule, the glucose tolerance ([1]; rat, intravenously, summary statement) was “improves glucose tolerance”, the minimal effective concentration ([2]; Rattus norvegicus, 1 h, read-out: concentration at which a stimulatory effect on insulin secretion is apparent) was 200 µM and the “dose dependence of stimulation of insulin secretion” value ([2]; isolated rat islets, 8.3 mM glucose) was “increases slightly with the dose”. The “mode of stimulation of insulin secretion” value ([2]; summary of "in vitro" tests) was “direct effect on the B cell of the islet of Langerhans”, the “macroscopic deleterious effect on the main organs at autopsy” value ([3]; 1 gram per kilo intraperitoneal, thymus, heart, lungs, liver, stomach, kidneys, adrenals, pancreas, duodenum, genital tract, bladder) was “does not appear to disclose any macroscopic deleterious effect” and the “LDo (zero lethal dose)” value ([3]; intraperitoneal, single dose) was “greater than 1 gram per kilo”. The “toxic phenomenon over 15 days” value ([3]; single dose 1 gram per kilo intraperitoneal) was “does not appear to detect any toxic phenomenon”, the duration of hyperinsulinaemia ([4]; fasted) was 5 min and the “effect on blood sugar level” value ([4]; fasted) was “gradual and discrete reduction in blood sugar level”. For the same molecule, the “rise in blood insulin level” value ([4]; from the 3rd minute) was “+277%”, the “effect on plasma insulin level” value ([5]; 9 mg/kg I.V.) was “immediate and particularly important increase” and the “time after injection at which reduction in circulating glucose level becomes significant” value ([5]; 9 mg/kg I.V.) was 15 min. The Blood sugar level ([5]; 9 mg/kg I.V., 2 min) was 1.26 ± 0.08 g/L, the Plasma insulin ([5]; 9 mg/kg I.V., 2 min) was 4.4 ± 1.1 ng/mL and the Blood sugar level ([5]; 9 mg/kg I.V., 5 min) was 1.18 ± 0.04 g/L. The Plasma insulin ([5]; 9 mg/kg I.V., 5 min) was 9.1 ± 1.0 ng/mL, the Blood sugar level ([5]; 9 mg/kg I.V., 15 min) was 0.94 ± 0.09 g/L and the Plasma insulin ([5]; 9 mg/kg I.V., 15 min) was 18.5 ± 1.5 ng/mL. The Blood sugar level ([5]; 9 mg/kg I.V., 30 min) was 0.99 ± 0.10 g/L, the Plasma insulin ([5]; 9 mg/kg I.V., 30 min) was 18.6 ± 1.5 ng/mL and the Blood sugar level ([5]; 9 mg/kg I.V., 45 min) was 0.99 ± 0.12 g/L. The Plasma insulin ([5]; 9 mg/kg I.V., 45 min) was 14.5 ± 4.8 ng/mL, the Blood sugar level ([5]; 9 mg/kg I.V., 60 min) was 0.94 ± 0.10 g/L and the Plasma insulin ([5]; 9 mg/kg I.V., 60 min) was 14.4 ± 4.8 ng/mL. It also gave a Blood sugar level ([5]; 9 mg/kg I.V., 90 min) of 0.89 ± 0.12 g/L, a Plasma insulin ([5]; 9 mg/kg I.V., 90 min) of 14.9 ± 5.2 ng/mL and a Blood sugar level [5, 8] of 1.34 ± 0.07 g/L. For the same molecule, the Plasma insulin [5, 8] was 3.4 ± 1.1 ng/mL, the Blood sugar level [5, 9] was 1.38 ± 0.09 g/L and the Plasma insulin [5, 9] was 2.4 ± 0.1 ng/mL. The Blood sugar level [5, 10] was 1.32 ± 0.09 g/L, the Plasma insulin [5, 10] was 2.8 ± 0.2 ng/mL and the “reduction in circulating glucose level relative to the starting value” ([5]; 9 mg/kg I.V., at the 90th minute) was “approximately 30%”. For the same molecule, the “side effect secondary to the injection (polypnea, tachycardia, hypoxia)” value ([5]; I.V. injection, anaesthetized rats) was “no side effect”, the Insulin secretion ([6]; 50 μM) was 1232 ± 93 ng/10 min and the Insulin secretion ([6]; 200 μM) was 1520 ± 154 ng/10 min. The “effect on insulin secretion (time course)” value ([6]; 200 μM, perfusion for 10 minutes) was “stimulation is immediate and in two phases, and persists throughout the period of the perfusion”, the Insulin secretion ([6]; 500 μM) was 2206 ± 213 ng/10 min and the “concentration dependence of stimulatory effect on insulin secretion” value ([6]; 50 to 500 μM) was “stimulatory effect increases with the 4-hydroxyisoleucine concentration”. For the same molecule, the “pancreatic vascular flow and level of pancreatic glucagon” value ([6]; during perfusion) was “no modification”, the Blood sugar level ([7]; 9 mg/kg intragastric with glucose 1 g/kg, 30th minute, glucose alone 166 mg/dl) was 120 mg/dL and the “change in blood sugar level” value ([7]; 9 mg/kg intragastric with glucose 1 g/kg, 30th minute, glucose alone +85%) was “+31%”. The glucose tolerance ([7]; dog, orally, summary statement) was “improves glucose tolerance”.
